The test system of one series is S. epidermidis, 56500. The series can be described thus: Antimicrobial activity (MIC), standard method of Nippon Kagakuryoho Gakkai. Type of series: cell-based. The following applies: for MIC: Staphylococcus epidermidis, 56500, S. epidermidis; for Antimicrobial activity (MIC): S. epidermidis. As for the experimental part: (§1) Antimicrobial activity of the optically active compounds prepared in Examples was evaluated in accordance with the standard method specified by Nippon […], and results obtained are shown in Table 1 which precedes the claims herein in terms of minimum inhibitory concentration (MIC: […]).

Another series has as its system S. aureus, 209 P. Described as above. Type of series: cell-based. The following applies: for MIC: Staphylococcus aureus. The method, then:
as §1

A further series concerns Pr. vulgaris, 08601. The description is as above. In kind it is cell-based. As to conditions: for MIC: Proteus vulgaris. As for the experimental part: as §1
The test system of another series is Ps. aeruginosa, 32104. The series is described as above. As to conditions: for MIC: Pseudomonas aeruginosa, 32104, Ps. aeruginosa; for Antimicrobial activity (MIC): Ps. aeruginosa. Type of series: cell-based. The method, then:
as §1

For a further series, the system named is Ser. marcescens, 10100. The series is described as above. Type of series: cell-based. The following applies: for MIC: Serratia marcescens, 10100, Ser. marcescens; for Antimicrobial activity (MIC): Ser. marcescens. As for the experimental part:
as §1

Another series concerns E. coli., NIHJ. Described as above. Type of series: cell-based. The following applies: for MIC: Escherichia coli. As for the experimental part: as §1
For series [1], the system named is Str. faecalis, ATCC 19433. The series is described as above. The following applies: for MIC: Enterococcus faecalis, ATCC19433, Str. faecalis; for Antimicrobial activity (MIC): Str. faecalis. In kind it is cell-based. The method, then:
as §1

In the next series the test system is Ps. aeruginosa, 32121. The series is described as above. In kind it is cell-based. As to conditions: for MIC: Pseudomonas aeruginosa, 32121, Ps. aeruginosa; for Antimicrobial activity (MIC): Ps. aeruginosa. The method, then: as §1

Consider 7 compounds from patent USRE41149E1, “Optically active pyridonecarboxylic acid derivatives” (Daiichi Sankyo Company, Limited, priority 1988, dated 2010).

In brackets after ≈: the same amount, converted by molar mass. Where a name gives a salt, the structure may show the parent alone.

For the compound `Cc1c(N2CC[C@@H]([C@H](C)N)C2)c(F)cc2c(=O)c(C(=O)O)cn(C3CC3F)c12` (single isomer, unassigned; (-)) (as salt: hydrochloride) [Compound 54b], the melting point is 149 to 153 °C.

In turn, `C[C@H](N)[C@@H]1CCN(c2c(F)cc3c(=O)c(C(=O)O)cn(C4CC4F)c3c2Cl)C1` (single isomer, unassigned; (-)) [Compound 34b] showed a melting point of 204 to 207 °C. Also, the MIC with S. epidermidis, 56500 was < 0.1 µg/mL. Further, in the series on S. aureus, 209 P, the MIC was < 0.1 µg/mL. Further, the MIC against Pr. vulgaris, 08601 is < 0.1 µg/mL. Also, in the series on Ps. aeruginosa, 32104, inhibition of growth (MIC) required 0.1 µg/mL (≈ 0.243 µM). Further, the MIC with Ser. marcescens, 10100 was < 0.1 µg/mL. Moreover, the MIC against E. coli., NIHJ was < 0.1 µg/mL. Further, the MIC in series [1] was < 0.1 µg/mL. For the same compound, the MIC in the series on Ps. aeruginosa, 32121 is < 0.1 µg/mL.

Take `CC1(C)CN(c2c(F)cc3c(=O)c(C(=O)O)cn([C@@H]4C[C@@H]4F)c3c2Cl)CC1N` (single isomer, unassigned; (-)) [Compound 59b]: the melting point lay within 118 to 121 °C. In addition, the MIC against S. epidermidis, 56500 was < 0.1 µg/mL. The MIC against S. aureus, 209 P was < 0.1 µg/mL. Besides, the MIC against Pr. vulgaris, 08601 is < 0.1 µg/mL. For the same compound, inhibition of growth in the series with Ps. aeruginosa, 32104 (MIC) required 0.2 µg/mL (≈ 0.486 µM). Further, the MIC against Ser. marcescens, 10100 was < 0.1 µg/mL. The MIC with E. coli., NIHJ is < 0.1 µg/mL. The compound further displayed an MIC in [1] of 0.1 µg/mL (≈ 0.243 µM). For the same compound, the MIC with Ps. aeruginosa, 32121 was < 0.1 µg/mL.

Take “(+)-5-Amino-7-[3-(S)-amino-1-pyrrolidinyl]-6,8-difluoro-1-(1,2-cis-2-fluoro-1-cyclopropyl)-4-oxo-1,4-dihydroquinoline-3-carboxylic acid [Compound 18b]”: the “Antimicrobial activity (MIC)” value with S. epidermidis, 56500 is <0.1 µg/mL; with S. aureus, 209 P it was <0.1 µg/mL; with Pr. vulgaris, 08601 it was <0.1 µg/mL; in the series on Ps. aeruginosa, 32104, <0.1 µg/mL; in the series on Ser. marcescens, 10100 it was <0.1 µg/mL; in the series with E. coli., NIHJ, <0.1 µg/mL. Moreover, the “Antimicrobial activity (MIC)” value in series [1] was 0.10 µg/mL; in the series on Ps. aeruginosa, 32121, <0.1 µg/mL.

Regarding “(+)-7-[3-(S)-Amino-1-pyrrolidinyl]-8-chloro-6-fluoro-1-(1,2-cis-2-fluoro-1-cyclopropyl)-4-oxo-1,4-dihydroquinoline-3-carboxylic acid [Compound 13a]”, the “Antimicrobial activity (MIC)” value is <0.1 µg/mL with S. epidermidis, 56500; <0.1 µg/mL in the series with S. aureus, 209 P; <0.1 µg/mL in the series on Pr. vulgaris, 08601; <0.1 µg/mL in the series on Ps. aeruginosa, 32104; <0.1 µg/mL in the series with Ser. marcescens, 10100; <0.1 µg/mL in the series with E. coli., NIHJ. Moreover, the “Antimicrobial activity (MIC)” value in series [1] was 0.20 µg/mL; with Ps. aeruginosa, 32121, <0.1 µg/mL.

As to “(−)-5-Amino-7-[3-(S)-amino-1-pyrrolidinyl]-6,8-difluoro-1-(1,2-cis-2-fluoro-1-cyclopropyl)-4-oxo-1,4-dihydroquinoline-3-carboxylic acid [Compound 18a]”, the “Antimicrobial activity (MIC)” value with S. epidermidis, 56500 was <0.1 µg/mL; in the series with S. aureus, 209 P it was <0.1 µg/mL; with Pr. vulgaris, 08601 it was <0.1 µg/mL; in the series with Ps. aeruginosa, 32104 it was <0.1 µg/mL; in the series with Ser. marcescens, 10100, <0.1 µg/mL; with E. coli., NIHJ, <0.1 µg/mL. The “Antimicrobial activity (MIC)” value in series [1] is 0.20 µg/mL; with Ps. aeruginosa, 32121, <0.1 µg/mL.

On to “(−)-7-[3-(S)-Amino-1-pyrrolidinyl]-8-chloro-6-fluoro-1-(1,2-cis-2-fluoro-1-cyclopropyl)-4-oxo-1,4-dihydroquinoline-3-carboxylic acid [Compound 13b]”, for which the “Antimicrobial activity (MIC)” value in the series on S. epidermidis, 56500 was <0.1 µg/mL; in the series with S. aureus, 209 P, <0.1 µg/mL; in the series with Pr. vulgaris, 08601, <0.1 µg/mL; with Ps. aeruginosa, 32104, <0.1 µg/mL; in the series with Ser. marcescens, 10100, <0.1 µg/mL; with E. coli., NIHJ, <0.1 µg/mL. Also, the “Antimicrobial activity (MIC)” value in [1] is 0.20 µg/mL; in the series with Ps. aeruginosa, 32121 it was <0.1 µg/mL.
